Test results published in ChEMBL document CHEMBL1201862, “PubChem BioAssay data set” (2004).
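Briefly, cells in 96-well plates were exposed to five compound concentrations for 48 h, and endpoints were estimated by linear interpolation. GI50: concentration for 50% inhibition of growth.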 Calls of active or inactive are those of the source. Cut-off read from the data, not from the text of the source: active = GI50 up to about 1.1 µM and inactive = higher.

Assays:
Assay in all cases: inhibition of tumour cell growth, NCI panel, 48 h
CAKI-1 = system: CAKI-1
OVCAR-8 = system: OVCAR-8
SF-268 = system: SF-268
CCRF-CEM = system: CCRF-CEM
UACC-62 = system: UACC-62
NCI-H226 = system: NCI-H226
RXF 393 = system: RXF 393
MDA-MB-231 = system: MDA-MB-231
ACHN = system: ACHN
SF-295 = system: SF-295
MOLT-4 = system: MOLT-4
SF-539 = system: SF-539
RPMI-8226 = system: RPMI-8226
Hs-578T = system: Hs-578T
A549 = system: A549
KM12 = system: KM12
M19-MEL = system: M19-MEL
786-0 = system: 786-0
LOX IMVI = system: LOX IMVI
NCI/ADR-RES = system: NCI/ADR-RES
PC-3 = system: PC-3
SNB-75 = system: SNB-75
NCI-H460 = system: NCI-H460
XF498 = system: XF498
NCI-H522 = system: NCI-H522
OVCAR-5 = system: OVCAR-5
SK-MEL-2 = system: SK-MEL-2
DU-145 = system: DU-145
T47D = system: T47D
MDA-N = system: MDA-N
EKVX = system: EKVX
KM-20L2 = system: KM-20L2
SK-MEL-5 = system: SK-MEL-5
A498 = system: A498
K562 = system: K562
M14 = system: M14
MCF7 = system: MCF7
HCT-116 = system: HCT-116
SK-MEL-28 = system: SK-MEL-28
HCT-15 = system: HCT-15
HL-60 = system: HL-60
IGROV-1 = system: IGROV-1
Malme-3M = system: Malme-3M
HT-29 = system: HT-29
HOP-92 = system: HOP-92
SN12C = system: SN12C
NCI-H23 = system: NCI-H23
U-251 = system: U-251
COLO 205 = system: COLO 205
MDA-MB-435 = system: MDA-MB-435
LXFL 529 = system: LXFL 529
SW-620 = system: SW-620
SNB-78 = system: SNB-78
OVCAR-3 = system: OVCAR-3
SK-OV-3 = system: SK-OV-3
HCC 2998 = system: HCC 2998
OVCAR-4 = system: OVCAR-4
SR = system: SR
UO-31 = system: UO-31
BT-549 = system: BT-549
HOP-62 = system: HOP-62
TK-10 = system: TK-10
DMS-114 = system: DMS-114
DLD-1 = system: DLD-1
SNB-19 = system: SNB-19
DMS-273 = system: DMS-273
UACC-257 = system: UACC-257
HOP-18 = system: HOP-18

Measured: GI50

CCOc1ccc2nc(NC(=O)C(=O)C(C(=O)c3ccccc3-c3ccccc3)C3OC(=O)c4ccccc43)sc2c1 (configuration not stated)
inactive: CAKI-1 23.2 µM | OVCAR-8 8.22 µM | SF-268 19.8 µM | CCRF-CEM 21.1 µM | UACC-62 16.4 µM | NCI-H226 5.31 µM | RXF 393 13.4 µM | MDA-MB-231 25.9 µM | ACHN 30.2 µM | SF-295 21.6 µM | MOLT-4 13.2 µM | SF-539 8.32 µM | RPMI-8226 12.2 µM | Hs-578T 34.8 µM | A549 26.4 µM | KM12 8.93 µM | M19-MEL 19.1 µM | 786-0 16.5 µM | LOX IMVI 17.5 µM | NCI/ADR-RES 12.1 µM | PC-3 18.2 µM | SNB-75 21.3 µM | NCI-H460 19.5 µM | XF498 21.3 µM | NCI-H522 16.7 µM | OVCAR-5 44.3 µM | SK-MEL-2 17.8 µM | DU-145 21.9 µM | T47D 13.9 µM | MDA-N 19.6 µM | EKVX 19.8 µM | KM-20L2 22.4 µM | SK-MEL-5 16.2 µM | A498 22.1 µM | K562 22.3 µM | M14 27.6 µM | MCF7 21.2 µM | HCT-116 18.4 µM | SK-MEL-28 20.2 µM | HL-60 22.8 µM | IGROV-1 26.7 µM | Malme-3M 13.8 µM | HT-29 19.4 µM | HOP-92 17.5 µM | SN12C 11.7 µM | NCI-H23 17.9 µM | U-251 15 µM | COLO 205 19.4 µM | MDA-MB-435 25.4 µM | LXFL 529 17.4 µM | SW-620 26.6 µM | SNB-78 18.6 µM | OVCAR-3 18.7 µM | SK-OV-3 25.9 µM | HCC 2998 18.5 µM | OVCAR-4 35.2 µM | SR 9.79 µM | UO-31 22.4 µM | BT-549 16.7 µM | HOP-62 25.5 µM | TK-10 16.5 µM | DMS-114 14.8 µM | DLD-1 29.6 µM | SNB-19 14 µM | DMS-273 23.1 µM | UACC-257 22.4 µM
22.4 µM: HCT-15

Cc1cc(N(CCC#N)CCC#N)ccc1/C=C1/N=C(c2ccccc2)N(N)C1=O
> 100 µM: HCT-15
inactive: CAKI-1 98.2 µM | OVCAR-8 > 100 µM | SF-268 60.1 µM | CCRF-CEM 61.7 µM | UACC-62 99.8 µM | NCI-H226 > 100 µM | ACHN > 100 µM | SF-295 46.1 µM | MOLT-4 > 100 µM | SF-539 60.8 µM | RPMI-8226 > 100 µM | A549 84.1 µM | KM12 > 100 µM | M19-MEL > 100 µM | 786-0 37.6 µM | LOX IMVI 49.3 µM | SNB-75 21.1 µM | XF498 > 100 µM | NCI-H522 26 µM | OVCAR-5 > 100 µM | SK-MEL-2 > 100 µM | EKVX > 100 µM | KM-20L2 > 100 µM | SK-MEL-5 > 100 µM | A498 > 100 µM | K562 53.5 µM | M14 > 100 µM | HCT-116 > 100 µM | SK-MEL-28 > 100 µM | HL-60 27 µM | IGROV-1 79.8 µM | Malme-3M > 100 µM | HT-29 > 100 µM | HOP-92 30 µM | SN12C > 100 µM | NCI-H23 56.9 µM | U-251 63.7 µM | COLO 205 > 100 µM | LXFL 529 > 100 µM | SW-620 85.5 µM | OVCAR-3 > 100 µM | SK-OV-3 > 100 µM | HCC 2998 > 100 µM | OVCAR-4 34.8 µM | UO-31 > 100 µM | HOP-62 31.9 µM | TK-10 74.1 µM | DMS-114 75 µM | DLD-1 > 100 µM | SNB-19 31.1 µM | DMS-273 89.1 µM | UACC-257 > 100 µM

CN(Cc1ccccc1)/C(=N\C#N)N(Cc1ccccc1)Cc1ccccc1
active: SR 0.0383 µM
inactive: CAKI-1 20.1 µM | OVCAR-8 29.9 µM | SF-268 34.4 µM | CCRF-CEM 37.2 µM | UACC-62 20.4 µM | NCI-H226 28.8 µM | RXF 393 28.9 µM | MDA-MB-231 20.6 µM | ACHN 24.3 µM | SF-295 14.1 µM | MOLT-4 10.5 µM | SF-539 19.8 µM | RPMI-8226 21 µM | Hs-578T 34.8 µM | A549 31 µM | KM12 18.7 µM | M19-MEL 22.8 µM | 786-0 31.5 µM | LOX IMVI 16.4 µM | NCI/ADR-RES 19.8 µM | PC-3 14.8 µM | SNB-75 30.5 µM | NCI-H460 27.6 µM | NCI-H522 18.1 µM | OVCAR-5 21.1 µM | SK-MEL-2 20.3 µM | DU-145 39.9 µM | T47D 27.7 µM | MDA-N 17.9 µM | EKVX 34.6 µM | KM-20L2 19.6 µM | SK-MEL-5 18.4 µM | A498 44.8 µM | K562 25.2 µM | M14 20.3 µM | MCF7 22.3 µM | HCT-116 18.7 µM | SK-MEL-28 27.3 µM | HL-60 30.1 µM | IGROV-1 24.3 µM | Malme-3M 25.2 µM | HT-29 14.7 µM | HOP-92 16.9 µM | SN12C 34.7 µM | NCI-H23 21.9 µM | U-251 28.2 µM | COLO 205 19 µM | MDA-MB-435 15.1 µM | LXFL 529 21.9 µM | SW-620 40.4 µM | SNB-78 26.3 µM | OVCAR-3 18 µM | SK-OV-3 29 µM | HCC 2998 34.8 µM | OVCAR-4 24.4 µM | UO-31 26.5 µM | BT-549 19.3 µM | HOP-62 27.7 µM | TK-10 33 µM | DLD-1 21 µM | SNB-19 40.2 µM | DMS-273 20.9 µM | UACC-257 21.6 µM
26.6 µM: HCT-15

Nc1ccccc1Nc1ccccc1C(=O)[O-].Nc1ccccc1Nc1ccccc1C(=O)[O-].[Zn+2]
> 100 µM: HCT-15
inactive: CAKI-1 > 100 µM | OVCAR-8 > 100 µM | SF-268 45.6 µM | CCRF-CEM 33 µM | UACC-62 25.1 µM | ACHN > 100 µM | SF-295 32.8 µM | MOLT-4 > 100 µM | SF-539 > 100 µM | RPMI-8226 > 100 µM | A549 > 100 µM | KM12 > 100 µM | 786-0 > 100 µM | SNB-75 17.7 µM | NCI-H460 > 100 µM | XF498 28.1 µM | NCI-H522 19.7 µM | OVCAR-5 > 100 µM | SK-MEL-2 19.8 µM | EKVX > 100 µM | KM-20L2 > 100 µM | SK-MEL-5 91.4 µM | A498 > 100 µM | K562 62.4 µM | M14 51.4 µM | HCT-116 > 100 µM | SK-MEL-28 > 100 µM | IGROV-1 40.6 µM | Malme-3M > 100 µM | HT-29 > 100 µM | SN12C > 100 µM | NCI-H23 > 100 µM | U-251 > 100 µM | COLO 205 > 100 µM | SW-620 > 100 µM | OVCAR-3 23.4 µM | SK-OV-3 > 100 µM | HCC 2998 > 100 µM | UO-31 > 100 µM | HOP-62 > 100 µM | TK-10 > 100 µM | SNB-19 > 100 µM | UACC-257 33.7 µM

CN1N=C2NCCNC3=NN(C)/C(=N/CC/N=C/1S2)S3
> 100 µM: HCT-15
inactive: OVCAR-8 > 100 µM | SF-268 > 100 µM | CCRF-CEM > 100 µM | UACC-62 > 100 µM | NCI-H226 > 100 µM | RXF 393 > 100 µM | ACHN > 100 µM | SF-295 > 100 µM | MOLT-4 > 100 µM | SF-539 > 100 µM | RPMI-8226 > 100 µM | A549 > 100 µM | KM12 > 100 µM | M19-MEL > 100 µM | 786-0 > 100 µM | LOX IMVI > 100 µM | SNB-75 > 100 µM | NCI-H460 > 100 µM | NCI-H522 > 100 µM | OVCAR-5 > 100 µM | HOP-18 > 100 µM | EKVX > 100 µM | KM-20L2 > 100 µM | SK-MEL-5 > 100 µM | A498 > 100 µM | K562 > 100 µM | M14 > 100 µM | HCT-116 > 100 µM | SK-MEL-28 > 100 µM | HL-60 > 100 µM | IGROV-1 > 100 µM | HT-29 > 100 µM | HOP-92 > 100 µM | SN12C > 100 µM | NCI-H23 > 100 µM | U-251 > 100 µM | COLO 205 > 100 µM | LXFL 529 > 100 µM | SW-620 > 100 µM | SNB-78 > 100 µM | OVCAR-4 > 100 µM | SR > 100 µM | HOP-62 > 100 µM | DLD-1 > 100 µM | SNB-19 > 100 µM | DMS-273 > 100 µM | UACC-257 > 100 µM
